What was measured:
Plasma [1] = experiment: Fraction unbound in C57BL/6j mouse plasma at 10 mg/kg, sc after 1 hr; assay type: ADME, organism-based; conditions: in vivo
[2] = Permeability in RRCK cells; assay type: ADME, cell-based, Canis lupus familiaris, MDCKII-LE; conditions: dog, MDCK; read-out: permeability
[3] = Ratio of unbound AUC in brain to plasma in C57BL/6j mouse; assay type: ADME, organism-based; conditions: read-out: Ratio AUC
[4] = Ratio of unbound AUC in brain to plasma in Wistar Hann rat; assay type: ADME, organism-based; conditions: read-out: Ratio AUC
[5] = Oral bioavailability in Wistar Hann rat; assay type: ADME, organism-based; conditions: in vivo
Plasma [6] = experiment: Fraction unbound in C57BL/6j mouse plasma; assay type: ADME, cell-free
Plasma [7] = experiment: Fraction unbound in Wistar Hann rat plasma; assay type: ADME, cell-free
Plasma [8] = experiment: Fraction unbound in C57BL/6j mouse plasma at […], sc after 1 hr; assay type: ADME, organism-based; conditions: in vivo
[9] = Ratio drug level in brain to plasma in C57BL/6j mouse at […], sc after 1 hr; assay type: ADME, organism-based; conditions: read-out: BPR
[10] = Ratio of unbound AUC in brain to plasma in C57BL/6j mouse at […], sc after 1 hr; assay type: ADME, organism-based; conditions: read-out: Ratio AUC
[11] = Ratio drug level in brain to plasma in C57BL/6j mouse at 10 mg/kg, sc after 1 hr; assay type: ADME, organism-based; conditions: read-out: BPR
[12] = Ratio of unbound AUC in brain to plasma in C57BL/6j mouse at 10 mg/kg, sc after 1 hr; assay type: ADME, organism-based; conditions: read-out: Ratio AUC
Plasma [13] = experiment: Fraction unbound in C57BL/6j mouse plasma at 10 mg/kg, sc after 0.5 hrs; assay type: ADME, organism-based; conditions: in vivo
[14] = Ratio drug level in brain to plasma in C57BL/6j mouse at 10 mg/kg, sc after 0.5 hrs; assay type: ADME, organism-based; conditions: read-out: BPR
[15] = Ratio of unbound AUC in brain to plasma in C57BL/6j mouse at 10 mg/kg, sc after 0.5 hrs; assay type: ADME, organism-based; conditions: read-out: Ratio AUC
Plasma [16] = experiment: Fraction unbound in C57BL/6j mouse plasma at 10 mg/kg, sc after 2 hrs; assay type: ADME, organism-based; conditions: in vivo
[17] = Ratio drug level in brain to plasma in C57BL/6j mouse at 10 mg/kg, sc after 2 hrs; assay type: ADME, organism-based; conditions: read-out: BPR
[18] = Ratio of unbound AUC in brain to plasma in C57BL/6j mouse at 10 mg/kg, sc after 2 hrs; assay type: ADME, organism-based; conditions: read-out: Ratio AUC
Plasma [19] = experiment: Fraction unbound in C57BL/6j mouse plasma at 10 mg/kg, sc after 4 hrs; assay type: ADME, organism-based; conditions: in vivo
[20] = Ratio drug level in brain to plasma in C57BL/6j mouse at 10 mg/kg, sc after 4 hrs; assay type: ADME, organism-based; conditions: read-out: BPR
[21] = Ratio of unbound AUC in brain to plasma in C57BL/6j mouse at 10 mg/kg, sc after 4 hrs; assay type: ADME, organism-based; conditions: read-out: Ratio AUC
[22] = AUC (0 to 24 hrs) in Wistar Hann rat at 0.5 mg/kg, iv; assay type: ADME, organism-based; design: dose 0.5 mg/kg, time < 24 hr, route intravenous; conditions: in vivo
[23] = Intial plasma concentration in Wistar Hann rat at 0.5 mg/kg, iv; assay type: ADME, organism-based
[24] = Volume of distribution at steady state in Wistar Hann rat at 0.5 mg/kg, iv; assay type: ADME, organism-based; conditions: in vivo, read-out: Vdss
[25] = Cmax in Wistar Hann rat at 2 mg/kg, po; assay type: ADME, organism-based; design: dose 2 mg/kg, route oral; conditions: in vivo
[26] = Tmax in Wistar Hann rat at 2 mg/kg, po; assay type: ADME, organism-based; conditions: in vivo
[27] = AUC in Wistar Hann rat at 2 mg/kg, po; assay type: ADME, organism-based; conditions: in vivo
[28] = Oral bioavailability in Wistar Hann rat at 2 mg/kg; assay type: ADME, organism-based; conditions: in vivo
[29] = Drug concentration in Wistar Hann rat brain at 5 mg/kg, sc after 1 hr; assay type: ADME, organism-based; conditions: read-out: Drug uptake
[30] = Drug concentration in Wistar Hann rat brain at 5 mg/kg, sc after 2 hrs; assay type: ADME, organism-based; conditions: read-out: Drug uptake
[31] = Drug concentration in Wistar Hann rat brain at 5 mg/kg, sc after 4 hrs; assay type: ADME, organism-based; conditions: read-out: Drug uptake
[32] = Drug concentration in Wistar Hann rat brain at 5 mg/kg, sc after 6 hrs; assay type: ADME, organism-based; conditions: read-out: Drug uptake
[33] = Drug concentration in Wistar Hann rat plasma at 5 mg/kg, sc after 1 hr; assay type: ADME, organism-based
[34] = Drug concentration in Wistar Hann rat plasma at 5 mg/kg, sc after 2 hrs; assay type: ADME, organism-based
[35] = Drug concentration in Wistar Hann rat plasma at 5 mg/kg, sc after 4 hrs; assay type: ADME, organism-based
[36] = Drug concentration in Wistar Hann rat plasma at 5 mg/kg, sc after 6 hrs; assay type: ADME, organism-based

Cn1ccc(-c2ccc(Cn3cc(C(=O)N[C@H]4CCOC[C@@H]4O)c4ncccc43)cc2)n1
Cp(f) (Plasma [1]): 560 nM
Papp [2]: 31.5 ×10⁻⁶ cm/s
Kp uu [3]: 0.2
Kp uu [4]: 0.15
bioavailability [5]: 69%
Cp(f) (Plasma [6]): 0.027 nM
Cp(f) (Plasma [7]): 0.092 nM
Cp(f) (Plasma [8]): 302.2 nM
Kp at 1 h [9]: 0.04
Kp uu at 1 h [10]: 0.1
Kp at 1 h [11]: 0.07
Kp uu at 1 h [12]: 0.18
Cp(f) (Plasma [13]): 295 nM
Kp at 0.5 h [14]: 0.14
Kp uu at 0.5 h [15]: 0.34
Cp(f) (Plasma [16]): 379 nM
Kp at 2 h [17]: 0.06
Kp uu at 2 h [18]: 0.16
Cp(f) (Plasma [19]): 218 nM
Kp at 4 h [20]: 0.1
Kp uu at 4 h [21]: 0.24
AUC(0-t) at 24 h [22]: 1660 ng·h/mL
C0 [23]: 535 ng/mL
Vd [24]: 1.49 L/kg
Cmax [25]: 600 ng/mL
Tmax [26]: 1.5 h
AUC [27]: 4510 ng·h/mL
bioavailability [28]: 67.9%
concentration at 1 h [29]: 1050 nM
concentration at 2 h [30]: 944 nM
concentration at 4 h [31]: 681 nM
concentration at 6 h [32]: 409 nM
concentration at 1 h [33]: 5030 nM
concentration at 2 h [34]: 5460 nM
concentration at 4 h [35]: 3190 nM
concentration at 6 h [36]: 2150 nM

Source: ChEMBL document CHEMBL3745675, “Design and optimization of selective azaindole amide M1 positive allosteric modulators” (Bioorg Med Chem Lett, 2016)
